Residues, ends and D or L forms follow the SMILES beside them. *: point of attachment. Boc = CC(C)(C)OC(=O)*

Broadly, the melting point is the temperature of the solid-liquid transition. For `CC(NC(=O)C(Cc1ccc(O)cc1)NC(=O)OC(C)(C)C)C(=O)NCC(=O)O` (stereo not drawn) (Boc-Tyr-Ala-Gly-OH; configuration not given here), the melting point lay within 194 to 197 °C.
In the case of `CC(C)(C)OC(=O)N1CCC(C(=O)c2nc3ccccc3[nH]2)CC1`, the melting point was in the range of 226 to 228 °C.
In the case of `O=C(Nc1cccc(OC(F)(F)F)c1)Nc1ccccc1CCO` it was 160 to 161 °C; in that of `CC(C)[C@@H](N)C(=O)NCC(F)(F)F`, 43 to 47 °C.
In the case of `CCOCN1C(C)=C(C(=O)O)C(c2cccc(Cl)c2Cl)C(C(=O)OC)=C1C` (single isomer, unassigned; (+)) it was 129 to 131 °C.
In the case of `CC(C)(C)CNc1nc(C#N)nc2ccc(OCc3ccccn3)cc12` it was 160 °C; in that of `CN1C(=O)CC(=O)N(c2ccccc2)C1=O`, 124 °C.
For `c1cn(-c2ccc3nc(-c4ccc5c(c4)OCCO5)ncc3c2)cn1`, the melting point is 132 °C.
In the case of `COC(=O)[C@H](Cc1c[nH]c2ccccc12)N(CCN(CC(=O)OC(C)(C)C)CC(=O)OC(C)(C)C)CCN(CC(=O)OC(C)(C)C)CC(=O)OC(C)(C)C` it was 71 °C; in that of `CC1CCC(CNc2cc3oc(=O)[nH]c3cc2F)C(C)O1` (configuration not stated), 123 to 139 °C.
In the case of `O=S(=O)(F)CCCCCCCc1ccc(OCc2ccccc2)cc1` it was 35 to 38 °C; in that of `CCCCCCCCCCCCc1ccccc1C(SCCC(=O)O)C(=O)O` (configuration not stated), 44 to 46 °C.
In the case of `O=C(C[C@H]1CCCO1)N[C@H]1CC[C@H](CCN2CCC(c3cccc4c3CCO4)CC2)CC1` it was 192 °C; in that of `COc1ccc(N2CCN(Cc3n[nH]c4c3CCc3ccccc3-4)CC2)cc1`, 207 to 208 °C.
In turn, `COc1ccc2c(c1)CC(CC(C)=O)C2=O` (racemic) showed a melting point of 73 °C.
In the case of `O=S(=O)(c1ccccc1)n1cnc(-c2ccc(F)cc2)c1-c1ccc(F)cc1` it was 172 to 175 °C; in that of `COC(=O)Cn1nnc(N)n1`, 127 to 128 °C.
`S=c1c(Br)coc2ccccc12` yielded a melting point of 41 °C.
`Cc1nc(COc2ccc(Cn3cc(CCC(=O)O)c(-c4ccccc4)c3)cc2)cs1`: the melting point is 113 to 114 °C.
Consider `COc1cc(-c2cc(C3CCOC3)no2)cc2oc(=O)c(C)c(C)c12` (configuration not stated), for which the melting point is 122 °C.
Take `N#Cc1nn(-c2c(Cl)cc(-c3c(F)c(F)nc(F)c3F)cc2Cl)c(N)c1SC(F)(F)F`: the melting point lay in the range of 100 to 104 °C.
In turn, `Cc1ccc2cc(NC(=O)c3cccc(CSc4cnccn4)c3)ccc2n1` showed a melting point of 133 to 135 °C.
In the case of `COc1ccc(C2Cc3ccccc3-c3nc(N)c4ccccc4c32)c(OC)c1OC` (configuration not stated) it was 283 °C; in that of `CCc1noc(CC(O)c2ccccc2)c1C(=O)NC` (configuration not stated), 135 to 137 °C.
In the case of `O=C(NC1CCCC1)c1ccc(-c2ccc3c(c2)CCN(CCN2CCCC2)C3=O)cc1` it was 258 to 260 °C; in that of `COc1ccc(CCN2CCC(=C3c4ccn(C)c4CCn4ncnc43)CC2)cc1`, 139 °C; in that of `Nc1nc2c(s1)-c1c(cnn1-c1ccccc1)CC2`, 307 to 308 °C.
In the case of `COc1ccccc1OCC1SCCN1C(=S)CC(=O)c1cc(OC)c(OC)c(OC)c1` (configuration not stated) it was 110 to 112 °C; in that of `C=CCN(c1nc(-c2cc3ccccc3[nH]c2=O)cs1)S(=O)(=O)c1ccccc1`, 214 to 216 °C; in that of `CCc1ccc(SC2CCOC2=O)c(C(=O)O)c1` (configuration not stated), 167 to 170 °C.
`CN(C)c1ccc(NS(=O)(=O)c2cccc(Br)c2)cc1`: the melting point lay in the range of 187 to 189 °C.
In the case of `CC(C(=O)N(C)C)n1cc(I)c(-c2ccccc2)n1` (configuration not stated) it was 108 to 111 °C.
In the case of `CC12CC3CC(C1)CC(CC(O)C(c1cccc(Cl)c1)n1ccnc1)(C3)C2` (configuration not stated) it was 126 °C; in that of `Cc1cc(-c2ccc(Cl)c(Cl)c2)nc(-n2cnc(-c3ccc(S(N)(=O)=O)s3)c2)n1`, 254 °C; in that of `CSc1cnn2c(Nc3ccc(F)c(Cl)c3)cc(Cl)nc12`, 156 to 158 °C.
In the case of `Cn1cc(C=O)c(-c2ccoc2)n1` it was 77 to 78 °C.
The compound `O=C(O)C(=O)c1cc(Cl)c(OCCOc2ccc3ccccc3c2)c(Cl)c1` yielded a melting point of 108 to 110 °C.
Turning to `CCN(CC)C(=O)c1cccc(-c2nc(=O)c3ccccc3s2)n1`, the melting point stood at 194 °C.
In the case of `CC(=O)Nc1nc(C)c(S(=O)(=O)NCCN(C)C)s1` it was 143 °C; in that of `Cc1ccccc1-n1c(C)nc2c(c1=O)N(Cc1ccccc1)NN2`, 178 to 180 °C; in that of `O=c1c2c(CCCc3ccccc3)n[nH]c2c2cccnc2n1-c1ccccc1`, 202 to 204 °C.
In the case of `CCC(CC)(OC)c1ccc(Cl)c2nc3n(c12)CCCN3c1ccc(Cl)cc1C(F)(F)F` it was 172 to 173 °C; in that of `C[Si](C)(C)C#Cc1ccc(C=CC2=CC(c3ccc(C#C[Si](C)(C)C)cc3)N(c3ccccc3)N2)cc1` (configuration not stated), 128 to 130 °C.
In the case of `Cc1ccc(C[C@@H](C(=O)O)[C@@H](O)c2ccc(F)cc2)cc1OC(F)(F)C(F)F` (racemic) it was 102 to 103 °C; in that of `COc1ccc(-c2oc(C(=O)O)cc(=O)c2O)cc1`, 258 to 260 °C; in that of `c1ccc(-c2nc3cnccc3[nH]2)cc1`, 225 to 226 °C.
As to `O=C1NCCc2c1c1cccc3c1n2CCO3`, the melting point was 298 to 300 °C.
In the case of `O=C(Nc1ccc(O)cc1)C(=O)N1CCC(Cc2ccccc2)CC1` it was 167 to 169 °C.
`COC(=O)C[C@H](O)C[C@H](O)C=Cc1c(-c2ccc(F)cc2)c(-c2ccccc2)c(C(=O)Nc2cccc(S(N)(=O)=O)c2)n1C(C)C` came in with a melting point of 85 to 87 °C.
In the case of `Cc1cc(C(=O)NC2CC2)ccc1N1CCN(Cc2cnc3c(c2)NC(=O)[C@@H]2CCCN32)CC1` it was 227 to 234 °C; in that of `CN(c1cccc(-c2ccnc3c(C(=O)c4cccs4)cnn23)c1)S(C)(=O)=O`, 169 to 170 °C; in that of `CO[C@H]1CC[C@H](N(C)C(=S)c2ccc3nonc3c2)CC1`, 137 to 138 °C.
`O=C1NC(=O)C(c2c[nH]c3cc(F)ccc23)=C1C1=COc2ccccc2O1` showed a melting point of 203 °C.
In the case of `CS(=O)(=O)Nn1c(=O)[nH]c2cc([N+](=O)[O-])c(-n3ccnc3)cc2c1=O` it was > 270 °C; in that of `CC(C)C(NC(=O)OCCN1CCOCC1)C(=O)NC(Cc1ccccc1)C(O)C(Cc1ccccc1)NC(=O)C(NC(=O)OCCN1CCOCC1)C(C)C` (configuration not stated), 122 to 123 °C.
In the case of `CC(=O)NC[C@H]1CN(c2ccc(C(=O)c3cnc4cc(-c5ccccc5)ccn34)cc2)C(=O)O1` it was 256 to 258 °C; in that of `CC(C)c1ccc(-n2nc(C(C)(C)C)cc2NC(=O)c2cncc3cc(Oc4cc(N)ncn4)ccc23)cc1`, 131 to 133 °C; in that of `CN1CCC(N2C(=O)CN=C(c3ccccc3)c3ccccc32)CC1`, 158 to 159 °C.
For the compound `CCCCCCCCS(=O)(=O)C(Cl)S(N)(=O)=O` (configuration not stated), the melting point lay in the range of 73 to 74 °C.
In the case of `Cn1cc(C2=C(c3cccc(NC(O)CCO)c3)C(=O)NC2=O)c2ccccc21` (racemic) it was 97.5 to 101 °C; in that of `Cc1cccc2n[nH]c(=O)n12`, 182 to 183 °C; in that of `Cc1ncc2cc(-c3c(Cl)cccc3Cl)c(NC(=O)c3ccco3)nc2n1`, 228 to 230 °C.
In the case of `Clc1ncccc1OCCOc1ccccc1` it was 77 to 78 °C; in that of `CC(=O)OCc1ccc2oc(=O)c(C(=O)Oc3cc(Cl)cc(Cl)c3)cc2c1`, 146 to 150 °C; in that of `COc1ccc2[nH]c(SCc3nccc(N4CCCCC4)c3Cl)nc2c1`, 145 to 147 °C.
In the case of `CCOC(=O)c1cn(C2CC2)c2c(F)c(F)c(Cl)cc2c1=O` it was 169 to 172 °C; in that of `NC(=O)Cn1c(-c2ccc(Br)o2)nc2cccnc21`, > 250 °C.
In turn, `COc1cc(C=O)ccc1OCC(=O)NCCO[N+](=O)[O-]` showed a melting point of 117 to 120 °C.
Turning to `CN(C)CCNC(=O)Cc1ccc(NC(=O)C2CCN(C(=O)OCc3ccccc3)CC2)cc1`, the melting point lay in the range of 169 to 170 °C.
`COC(=O)c1cc(Cl)c(N)c(Cl)c1` displayed a melting point of 72 to 74 °C.
In the case of `Nc1cc(=O)nc(Nc2ccc(Cl)cc2)n1-c1ccccc1` it was 233 to 237 °C; in that of `N#Cc1c(NC(=O)C2CCCCC2)sc(-c2ccccc2)c1C#N`, 208 to 212 °C; in that of `CC(=O)c1ccccc1-c1noc2ccccc12`, 108 °C.
Turning to `C=C(C)C(=O)NC1=CC(C(=O)O)C(O)(C(C)=O)C=C1` (configuration not stated), the melting point amounted to 192 °C.
In the case of `COc1cccc2c1C(=O)c1ccccc1C2(CC(=O)O)CC(=O)O` it was 239 to 243 °C; in that of `c1ccc(-c2nc(COc3cccc(CCCn4ccnc4)c3)cs2)cc1`, 63 to 64 °C.
In the case of `CCS(=O)(=O)NCc1cccc(-c2nc(=O)c3ccccc3s2)n1` it was 170 to 171 °C.
In the case of `N#Cc1ccc(CBr)c2ccccc12` it was 131 to 133 °C; in that of `O=C1C(=O)c2ccccc2C2=C1SCC1(CCN(CC3CCCCO3)CC1)O2` (configuration not stated), 135 to 137 °C; in that of `N#Cc1cc(C(=O)c2ccccc2)ccc1[N+](=O)[O-]`, 117 to 119 °C.
In turn, `CC1=C(C(=O)c2ccc3c(c2)CCN(C(N)=O)C3)C(C)(C)CC1` gave a melting point of 40.1 to 41.4 °C.
In the case of `CC(C)(C)OC(=O)NCC(=O)Nc1cccc(I)c1` it was 126 to 128 °C.
In the case of `Cc1ccccc1Nc1nc(N2CCCC2)nc2ccccc12` it was 152 to 154 °C; in that of `Cn1ncc2c1SSSSS2`, 57 to 60 °C.
In the case of `O=C(c1cc2ccccc2cn1)N(O)CCc1ccccc1` it was 90 to 95 °C; in that of `CC(CC(C(=O)N(C)C)(c1ccccc1)c1ccccc1)N1CCC(NC(=O)c2cccc(C(F)(F)F)c2)C(O)C1` (configuration not stated), 141 °C.
In the case of `O=C(NC(Cc1ccc(C(F)(F)F)cc1)C(O)c1ccc(F)cc1)c1cccc(-c2ccccc2)c1` (configuration not stated), the melting point lay within 165 to 166 °C.
